From patent US20250129028A1, “COMPOUNDS AND METHODS FOR YAP/TEAD MODULATION AND INDICATIONS THEREFOR” (Opna Bio SA, priority 2022, published 2025)

Test system: TEAD-dependent transcription
Assay: TEAD-dependent transcription cell-based reporter assay (MSTO-211H+12XGTIIC luciferase)
Parameters: species or system human
Details: Homo sapiens; MSTO-211H+12XGTIIC cell line, luciferase signal normalized to cell viability, 24 hours compound incubation; read-out: MSTO-211H GMean IC50 (uM) Cell Assay Reporter Cell Variant: TEAD
Outline: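 MSTO-211H mesothelioma cells stably carrying a 12xGTIIC TEAD-response-element luciferase reporter, treated with serial compound dilutions for 24 h at 37 °C. Luminescence normalized to CellTiter-Fluor viability signal; % inhibition versus DMSO and 20 μM K-975 controls, IC50 by nonlinear regression.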

Row | SMILES | IC50
1 | CS(=O)(=O)c1ccnc(N2CCc3ccc(Oc4ccc(C(F)(F)F)cc4)cc3C2)c1 [P-0227, 2-(4-(methylsulfonyl)pyr-idin-2-yl)-7-(4-(trifluoro-methyl)phenoxy)-1,2,3,4-tetrahydroisoquinoline] | 0.001 to 10 µM
2 | NC(=O)c1cccc(N2CCc3ccc(Oc4ccc(C(F)(F)F)cc4)cc3C2)n1 [P-0228, 6-(7-(4-(trifluoromethyl)-phenoxy)-3,4-dihydro-isoquinolin-2(1H)-yl)-picolinamide] | 0.001 to 10 µM
3 | CNC(=O)c1cccc(N2CCc3ccc(Oc4ccc(C(F)(F)F)cc4)cc3C2)n1 [P-0229, N-methyl-6-(7-(4-(trifluoromethyl)phen-oxy)-3,4-dihydroisoquin-olin-2(1H)-yl)picolin-amide] | 0.001 to 10 µM
4 | NS(=O)(=O)c1ccnc(N2CCc3ccc(Oc4ccc(C(F)(F)F)cc4)cc3C2)c1 [P-0230, 2-(7-(4-(trifluorometh-yl)phenoxy)-3,4-dihydro-isoquinolin-2(1H)-yl)-pyridine-4-sulfonamide] | 0.001 to 10 µM
5 | CNC(=O)c1cncc(N2CCc3ccc(Oc4ccc(C(F)(F)F)cc4)cc3C2)n1 [P-0231, N-methyl-6-(7-(4-(trifluoromethyl)phen-oxy)-3,4-dihydroisoquin-olin-2(1H)-yl)pyrazine-2-carboxamide] | 0.001 to 10 µM
6 | O=C(NC1CCCC1)N1CCc2c(cccc2Oc2ccc(C(F)(F)F)cc2)C1 [P-0232, N-cyclopentyl-5-(4-(trifluoromethyl)phen-oxy)-3,4-dihydroisoquin-oline-2(1H)-carboxamide] | 0.001 to 10 µM
7 | CC(C)NC(=O)N1CCc2c(cccc2Oc2ccc(C(F)(F)F)cc2)C1 [P-0233, N-isopropyl-5-(4-(trifluoromethyl)phen-oxy)-3,4-dihydroisoquin-oline-2(1H)-carboxamide] | 0.001 to 10 µM
8 | CC(C)C(=O)N1CCc2c(cccc2Oc2ccc(C(F)(F)F)cc2)C1 [P-0234, 2-methyl-1-(5-(4-(trifluoromethyl)phen-oxy)-3,4-dihydroisoquin-olin-2(1H)-yl)propan-1-one] | 0.001 to 10 µM
9 | CC(C)S(=O)(=O)N1CCc2c(cccc2Oc2ccc(C(F)(F)F)cc2)C1 [P-0235, 2-(isopropylsulfonyl)-5-(4-(trifluoromethyl)phen-oxy)-1,2,3,4-tetrahydro-isoquinoline] | 0.001 to 10 µM
10 | O=S(=O)(C1CCCC1)N1CCc2c(cccc2Oc2ccc(C(F)(F)F)cc2)C1 [P-0236, 2-(cyclopentylsulfonyl)-5-(4-(trifluoromethyl)-phenoxy)-1,2,3,4-tetra-hydroisoquinoline] | 0.001 to 10 µM
11 | O=C(Nc1ccccc1)N1CCc2c(cccc2Oc2ccc(C(F)(F)F)cc2)C1 [P-0237, N-phenyl-5-(4-(trifluoro-methyl)phenoxy)-3,4-dihydroisoquinoline-2(1H)-carboxamide] | 0.001 to 10 µM
12 | CCS(=O)(=O)NC(=O)N1CCc2c(cccc2Oc2ccc(C(F)(F)F)cc2)C1 [P-0238, N-(ethylsulfonyl)-5-(4-(trifluoromethyl)phen-oxy)-3,4-dihydroisoquin-oline-2(1H)-carboxamide] | 0.001 to 10 µM
13 | N#CCCC(=O)N1CCc2c(cccc2Oc2ccc(C(F)(F)F)cc2)C1 [P-0239, 4-oxo-4-(5-(4-(trifluoromethyl)phenoxy)-3,4-dihydroisoquinolin-2(1H)-yl)butanenitrile] | 0.001 to 10 µM
14 | Nc1nc(C(=O)N2CCc3c(cccc3Oc3ccc(C(F)(F)F)cc3)C2)cs1 [P-0240, (2-aminothiazol-4-yl)(5-(4-(trifluoromethyl)phen-oxy)-3,4-dihydroisoquin-olin-2(1H)-yl)methanone] | 0.001 to 10 µM
15 | O=C(Cc1ccn[nH]1)N1CCc2c(cccc2Oc2ccc(C(F)(F)F)cc2)C1 [P-0241, 2-(1H-pyrazol-5-yl)-1-(5-(4-(trifluoromethyl)-phenoxy)-3,4-dihydroiso-quinolin-2(1H)-yl)ethan-1-one] | 0.001 to 10 µM
16 | O=C(Cc1cnc[nH]1)N1CCc2c(cccc2Oc2ccc(C(F)(F)F)cc2)C1 [P-0242, 2-(1H-imidazol-5-yl)-1-(5-(4-(trifluoromethyl)-phenoxy)-3,4-dihydroiso-quinolin-2(1H)-yl)ethan-1-one] | 0.001 to 10 µM
17 | O=C(CCc1cnc[nH]1)N1CCc2c(cccc2Oc2ccc(C(F)(F)F)cc2)C1 [P-0243, 3-(1H-imidazol-5-yl)-1-(5-(4-(trifluoromethyl)-phenoxy)-3,4-dihydroiso-quinolin-2(1H)-yl)pro-pan-1-one] | 0.001 to 10 µM
18 | Nc1cncc(C(=O)N2CCc3c(cccc3Oc3ccc(C(F)(F)F)cc3)C2)n1 [P-0244, (6-aminopyrazin-2-yl)(5-(4-(trifluoromethyl)phen-oxy)-3,4-dihydroisoquin-olin-2(1H)-yl)methanone] | 0.001 to 10 µM
19 | Nc1ccc(C(=O)N2CCc3c(cccc3Oc3ccc(C(F)(F)F)cc3)C2)cn1 [P-0245, (6-aminopyridin-3-yl)(5-(4-(trifluoromethyl)phen-oxy)-3,4-dihydroisoquin-olin-2(1H)-yl)methanone] | 0.001 to 10 µM

Row | SMILES | IC50
20 | O=C(Cc1cocn1)N1CCc2c(cccc2Oc2ccc(C(F)(F)F)cc2)C1 [P-0246, 2-(oxazol-4-yl)-1-(5-(4-(trifluoromethyl)phen-oxy)-3,4-dihydroisoquin-olin-2(1H)-yl)ethan-1-one] | 0.001 to 10 µM
21 | O=C(Cc1cn[nH]c1)N1CCc2c(cccc2Oc2ccc(C(F)(F)F)cc2)C1 [P-0247, 2-(1H-pyrazol-4-yl)-1-(5-(4-(trifluoromethyl)-phenoxy)-3,4-dihydroiso-quinolin-2(1H)-yl)ethan-1-one] | 0.001 to 10 µM
22 | O=C(CCc1cn[nH]c1)N1CCc2c(cccc2Oc2ccc(C(F)(F)F)cc2)C1 [P-0248, 3-(1H-pyrazol-4-yl)-1-(5-(4-(trifluoromethyl)-phenoxy)-3,4-dihydro-isoquinolin-2(1H)-yl)pro-pan-1-one] | 0.001 to 10 µM
23 | O=C(CCc1ncc[nH]1)N1CCc2c(cccc2Oc2ccc(C(F)(F)F)cc2)C1 [P-0249, 3-(1H-imidazol-2-yl)-1-(5-(4-(trifluoromethyl)-phenoxy)-3,4-dihydro-isoquinolin-2(1H)-yl)pro-pan-1-one] | 0.001 to 10 µM
24 | O=C(CCn1cnnc1)N1CCc2c(cccc2Oc2ccc(C(F)(F)F)cc2)C1 [P-0250, 3-(4H-1,2,4-triazol-4-yl)-1-(5-(4-(trifluoromethyl)-phenoxy)-3,4-dihydro-isoquinolin-2(1H)-yl)-propan-1-one] | 0.001 to 10 µM
25 | O=C(Cc1nnc[nH]1)N1CCc2c(cccc2Oc2ccc(C(F)(F)F)cc2)C1 [P-0251, 2-(4H-1,2,4-triazol-3-yl)-1-(5-(4-(trifluoromethyl)-phenoxy)-3,4-dihydroiso-quinolin-2(1H)-yl)ethan-1-one] | 0.001 to 10 µM
26 | O=C(Cc1cn[nH]c1O)N1CCc2c(cccc2Oc2ccc(C(F)(F)F)cc2)C1 [P-0252, 2-(5-hydroxy-1H-pyr-azol-4-yl)-1-(5-(4-(trifluoromethyl)phen-oxy)-3,4-dihydroisoquin-olin-2(1H)-yl)ethan-1-one] | 0.001 to 10 µM
27 | C=CC(=O)N1CCC(C(=O)N2CCc3c(cccc3Oc3ccc(C(F)(F)F)cc3)C2)C1 (stereo not shown) [P-0253, 1-(3-(5-(4-(trifluorometh-yl)phenoxy)-1,2,3,4-tetrahydroisoquinoline-2-carbonyl)pyrrolidin-1-yl)prop-2-en-1-one] | 0.001 to 10 µM
28 | O=C(CCS(=O)(=O)C(F)(F)F)N1CCc2c(cccc2Oc2ccc(C(F)(F)F)cc2)C1 [P-0254, 1-(5-(4-(trifluorometh-yl)phenoxy)-3,4-dihydro-isoquinolin-2(1H)-yl)-3-((trifluoromethyl)sul-fonyl)propan-1-one] | 0.001 to 10 µM
29 | C=CC(=O)N1CC(C(=O)N2CCc3c(cccc3Oc3ccc(C(F)(F)F)cc3)C2)C1 [P-0255, 1-(3-(5-(4-(trifluorometh-yl)phenoxy)-1,2,3,4-tetrahydroisoquinoline-2-carbonyl)azetidin-1-yl)prop-2-en-1-one] | 0.001 to 10 µM
30 | NC(=O)N1CCC(C(=O)N2CCc3c(cccc3Oc3ccc(C(F)(F)F)cc3)C2)C1 (stereo not shown) [P-0256, 3-(5-(4-(trifluorometh-yl)phenoxy)-1,2,3,4-tetrahydroisoquinoline-2-carbonyl)pyrrolidine-1-carboxamide] | 0.001 to 10 µM
31 | CN(C)CCCC(=O)N1CCc2c(cccc2Oc2ccc(C(F)(F)F)cc2)C1 [P-0263, 4-(dimethylamino)-1-(5-(4-(trifluoromethyl)phen-oxy)-3,4-dihydroisoquin-olin-2(1H)-yl)butan-1-one] | 0.001 to 10 µM
32 | CC(C)(O)CC(=O)N1CCc2c(cccc2Oc2ccc(C(F)(F)F)cc2)C1 [P-0264, 3-hydroxy-3-methyl-1-(5-(4-(trifluoromethyl)-phenoxy)-3,4-dihydroiso-quinolin-2(1H)-yl)butan-1-one] | 0.001 to 10 µM
33 | C[C@H](NC(=O)N1CCc2c(cccc2Oc2ccc(C(F)(F)F)cc2)C1)C1CC1 [P-0265, (S)-N-(1-cyclopropyl-ethyl)-5-(4-(trifluoro-methyl)phenoxy)-3,4-dihydroisoquinoline-2(1H)-carboxamide] | 0.001 to 10 µM
34 | COCC(C)NC(=O)N1CCc2c(cccc2Oc2ccc(C(F)(F)F)cc2)C1 (stereo not shown) [P-0266, N-(1-methoxypropan-2-yl)-5-(4-(trifluorometh-yl)phenoxy)-3,4-dihydro-isoquinoline-2(1H)-carboxamide] | 0.001 to 10 µM
35 | O=C(CC1CCCCC1)N1CCc2c(cccc2Oc2ccc(C(F)(F)F)cc2)C1 [P-0267, 2-cyclohexyl-1-(5-(4-(trifluoromethyl)phen-oxy)-3,4-dihydroisoquin-olin-2(1H)-yl)ethan-1-one] | 10 to 100 µM
36 | C[C@@H](CO)NC(=O)N1CCc2c(cccc2Oc2ccc(C(F)(F)F)cc2)C1 [P-0268, (S)-N-(1-hydroxypropan-2-yl)-5-(4-(trifluorometh-yl)phenoxy)-3,4-dihydro-isoquinoline-2(1H)-carboxamide] | 0.001 to 10 µM
37 | CS(=O)(=O)CCC(=O)N1CCc2c(cccc2Oc2ccc(C(F)(F)F)cc2)C1 [P-0269, 3-(methylsulfonyl)-1-(5-(4-(trifluoromethyl)phen-oxy)-3,4-dihydroisoquin-olin-2(1H)-yl)propan-1-one] | 0.001 to 10 µM
